Results on two molecules are retold here after ChEMBL document CHEMBL1152774, “Inhibition of Trypanosoma brucei glucose-6-phosphate dehydrogenase by human steroids and their effects on the viability of cultured parasites” (Bioorg Med Chem, 2009).

Calls of active or inactive are those of the source. No cut-off for these calls is given here.

Assay [1] addresses T1, Glucose-6-phosphate 1-dehydrogenase (Homo sapiens, UniProt P11413). The assay is described as follows: Inhibition of human G6PDH using NADP as substrate by Lineweaver-Burke plot.
In another assay the test system is Trypanosoma brucei. The assay is described as follows: Trypanocidal activity against Trypanosoma brucei 427 bloodstream form after 48 hrs by MTS assay. The format is functional. The following applies: Trypanosoma brucei, 427, 48 h; read-out: LD50 (the source's name). A general note: Tetrazolium assays rely on reduction of a dye to a coloured formazan, in cell work by metabolically active cells.

For assay [2], the target named is T2, Glucose-6-phosphate 1-dehydrogenase (Trypanosoma brucei, UniProt Q9GRG7).
T2 sequence (Q9GRG7 whole entry): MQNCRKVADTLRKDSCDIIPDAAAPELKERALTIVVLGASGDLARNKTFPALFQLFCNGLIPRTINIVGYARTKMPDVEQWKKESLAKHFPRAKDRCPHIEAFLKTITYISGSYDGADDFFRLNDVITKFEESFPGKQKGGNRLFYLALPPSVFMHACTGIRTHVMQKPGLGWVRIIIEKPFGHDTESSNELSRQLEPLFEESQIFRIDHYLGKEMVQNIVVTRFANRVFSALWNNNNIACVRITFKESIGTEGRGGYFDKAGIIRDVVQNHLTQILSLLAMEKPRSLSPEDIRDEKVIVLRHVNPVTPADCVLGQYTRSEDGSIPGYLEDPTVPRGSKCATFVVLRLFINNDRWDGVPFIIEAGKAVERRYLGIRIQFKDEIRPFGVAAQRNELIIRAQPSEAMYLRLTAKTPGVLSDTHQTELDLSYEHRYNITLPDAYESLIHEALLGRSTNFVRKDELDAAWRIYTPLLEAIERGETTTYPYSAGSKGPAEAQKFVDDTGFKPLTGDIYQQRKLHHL
The assay is described as follows: Inhibition of Trypanosoma brucei G6PDH using NADP as substrate by Lineweaver-Burke plot.

The target in assay [3] is T2, Glucose-6-phosphate 1-dehydrogenase. Nature of the assay: Inhibition of Trypanosoma brucei G6PDH using glucose-6-phosphate as substrate by Lineweaver-Burke plot.
Assay [4] concerns the target T1, Glucose-6-phosphate 1-dehydrogenase. Nature of the assay: Inhibition of human G6PDH using glucose-6-phosphate as substrate by Lineweaver-Burke plot.
For a further assay, the system named is Leishmania mexicana. The assay is described as follows: Antileishmanial activity against Leishmania mexicana early-metacyclic promastigotes up to 96 uM after 48 hrs by MTS assay. The format is functional, organism-based.

T1 sequence (P11413 whole entry): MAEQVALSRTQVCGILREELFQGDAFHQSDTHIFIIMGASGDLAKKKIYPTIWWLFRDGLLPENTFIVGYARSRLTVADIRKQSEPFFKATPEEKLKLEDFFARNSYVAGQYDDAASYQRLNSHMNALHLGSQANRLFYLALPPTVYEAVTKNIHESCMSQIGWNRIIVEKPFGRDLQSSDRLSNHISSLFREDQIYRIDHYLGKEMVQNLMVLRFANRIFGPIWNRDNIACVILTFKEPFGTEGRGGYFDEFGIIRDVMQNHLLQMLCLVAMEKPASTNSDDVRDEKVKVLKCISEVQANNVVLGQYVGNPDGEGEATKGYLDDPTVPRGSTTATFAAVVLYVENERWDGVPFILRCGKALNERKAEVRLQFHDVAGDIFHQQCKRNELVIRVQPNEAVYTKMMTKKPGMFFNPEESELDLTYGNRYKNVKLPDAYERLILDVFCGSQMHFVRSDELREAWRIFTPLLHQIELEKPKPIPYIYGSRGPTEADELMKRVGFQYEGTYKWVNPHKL

One may read the Ki as a dissociation constant, usually derived from enzyme kinetics or from competition with a known ligand. Lower therefore signals higher affinity. Turning to `C[C@]12CC[C@H](O)C[C@@H]1CC[C@@H]1[C@@H]2CC[C@]2(C)C(=O)CC[C@@H]12` [EPIANDROSTERONE], the Ki in assay [1] stood at 3 µM; in assay [2], 0.46 µM; in assay [3] it was 0.49 µM; in assay [4], 3.4 µM. The LC50 in the assay on Trypanosoma brucei worked out at 24.5 µM. In addition, the outcome in the assay on Leishmania mexicana was inactive.

As for `C[C@]12CC[C@H](O)CC1=CC[C@@H]1[C@@H]2CC[C@]2(C)C(=O)CC[C@@H]12` [PRASTERONE], the Ki in assay [1] was determined as 6.2 µM; in assay [2], 1.1 µM; in assay [3] it was 1.7 µM; in assay [4] it was 8.9 µM. Also, in the assay with Trypanosoma brucei, the LC50 worked out at 43.8 µM. The result with Leishmania mexicana was inactive.
